This note sets out measurements from patent US20140155384A1, “COMPOUNDS AND METHODS OF TREATING DIABETES” (Medivation Technologies, Inc., priority 2011, published 2014).

Assay [1] concerns the target T1, human recombinant adrenergic α2B receptor (Homo sapiens, UniProt P18089).
T1 construct: expressed in transfected cells; host or cells: CHO-K1
T1 sequence (P18089 1-450): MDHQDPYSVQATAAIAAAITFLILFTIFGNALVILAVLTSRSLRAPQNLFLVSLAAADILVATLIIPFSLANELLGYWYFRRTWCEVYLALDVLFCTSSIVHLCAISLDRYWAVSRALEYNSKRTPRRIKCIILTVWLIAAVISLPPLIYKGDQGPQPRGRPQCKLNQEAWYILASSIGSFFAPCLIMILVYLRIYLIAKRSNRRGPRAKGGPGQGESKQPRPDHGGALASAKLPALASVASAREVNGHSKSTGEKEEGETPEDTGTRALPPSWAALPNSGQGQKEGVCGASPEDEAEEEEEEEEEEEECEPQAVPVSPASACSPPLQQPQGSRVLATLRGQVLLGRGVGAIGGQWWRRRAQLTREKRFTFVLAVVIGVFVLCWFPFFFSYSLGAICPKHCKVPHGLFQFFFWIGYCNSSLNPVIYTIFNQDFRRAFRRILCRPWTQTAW
Description: Radioligand binding, adrenergic α2B receptor ([3H]Rauwolscine). Conditions: CHO-K1 cells, read-out: Percentage inhibition of ligand binding, Adrenergic α2B; for inhibition at 0.1 µM: 0.1 μM compound. The procedure:
To evaluate in radioligand binding assays the activity of compounds, human recombinant adrenergic α2B receptor expressed in Chinese hamster ovary (CHO) K1 cells (Uhlen, S. et al, Eur. J. Pharmacol. 343(1):93, 1998) in a modified Tris-HCl buffer (50 mM Tris-HCl, pH 7.4, 12.5 mM MgCl2, 1 mM EDTA, 0.2% BSA) was used. Compounds were incubated with 2.5 nM [^3H]Rauwolscine for 60 min at 25° C. Non-specific binding was estimated in the presence of 10 μM Prazosin. Receptor proteins were filtered and washed, the filters were then counted to determine [^3H]Rauwolscine specifically bound. Compounds were screened at 1 μM or lower, using 1% DMSO as vehicle. Compounds were tested in this biochemical assay and percent inhibition of specific binding was determined. Biochemical assay results are presented as the percent inhibition of specific binding in Table 2.

The target of assay [2] is T2, rat adrenergic α1B receptor (Rattus norvegicus, UniProt P15823).
T2 construct: rat adrenergic α1B receptor obtained from Wistar Rat liver; from tissue; host or cells: Wistar rat liver
T2 sequence (P15823 1-515): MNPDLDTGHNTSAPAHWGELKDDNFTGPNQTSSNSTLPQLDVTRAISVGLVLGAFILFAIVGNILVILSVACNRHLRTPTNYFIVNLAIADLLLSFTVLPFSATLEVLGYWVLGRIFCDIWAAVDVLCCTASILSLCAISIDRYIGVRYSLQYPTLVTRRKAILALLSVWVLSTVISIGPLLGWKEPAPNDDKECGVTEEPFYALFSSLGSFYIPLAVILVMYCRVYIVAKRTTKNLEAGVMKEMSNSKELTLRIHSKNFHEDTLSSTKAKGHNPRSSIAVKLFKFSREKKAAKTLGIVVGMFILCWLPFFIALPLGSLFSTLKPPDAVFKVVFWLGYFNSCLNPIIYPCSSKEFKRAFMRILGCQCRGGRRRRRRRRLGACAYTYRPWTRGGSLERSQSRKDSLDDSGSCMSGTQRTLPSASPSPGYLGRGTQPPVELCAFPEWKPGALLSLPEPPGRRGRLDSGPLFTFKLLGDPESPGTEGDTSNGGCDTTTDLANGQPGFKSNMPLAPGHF
Description: Radioligand binding, adrenergic α1B receptor ([3H]Prazosin). The following applies: 0.1 μM compound, Wistar rat liver, read-out: Percentage inhibition of ligand binding, Adrenergic α1B. The method, then:
To evaluate in radioligand binding assays the activity of compounds, rat adrenergic α1B receptor obtained from Wistar Rat liver (Garcia-S' ainz, J. et al, Biochem. Biophys. Res. Commun. 186:760, 1992; Michel, A. et al, Br. J. Pharmacol. 98:883, 1989) in a modified Tris-HCl buffer (50 mM Tris-HCl buffer, pH 7.4, 0.5 mM EDTA) was used. Compounds were incubated with 0.25 nM [^3H]Prazosin for 60 min at […]. Non-specific binding was estimated in the presence of 10 μM phentolamine. Receptor proteins were filtered and washed, the filters were then counted to determine [^3H]Prazosin specifically bound. Compounds were screened at 1 μM or lower, using 1% DMSO as vehicle. Compounds were tested in this biochemical assay and percent inhibition of specific binding was determined. Biochemical assay results are presented as the percent inhibition of specific binding in Table 2.

The target in assay [3] is T3, human recombinant adrenergic α2A receptor (Homo sapiens, UniProt P08913).
T3 construct: expressed in transfected cells; host or cells: insect Sf9 cells
T3 sequence (P08913 1-465): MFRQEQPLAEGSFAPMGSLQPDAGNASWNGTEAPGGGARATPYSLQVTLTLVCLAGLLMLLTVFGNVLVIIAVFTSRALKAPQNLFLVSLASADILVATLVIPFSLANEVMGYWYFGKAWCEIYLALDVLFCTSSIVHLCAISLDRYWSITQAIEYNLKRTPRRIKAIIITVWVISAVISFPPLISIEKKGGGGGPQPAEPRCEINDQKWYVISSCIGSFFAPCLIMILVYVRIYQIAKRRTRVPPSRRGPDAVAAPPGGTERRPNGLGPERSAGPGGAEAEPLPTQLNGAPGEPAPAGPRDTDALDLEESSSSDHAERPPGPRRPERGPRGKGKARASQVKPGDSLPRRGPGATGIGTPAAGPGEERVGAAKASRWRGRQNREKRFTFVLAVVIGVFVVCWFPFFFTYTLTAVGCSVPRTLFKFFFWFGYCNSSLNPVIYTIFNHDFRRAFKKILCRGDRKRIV
The assay can be described thus: Radioligand binding, adrenergic α2A receptor ([3H]MK-912). The following applies: 0.1 μM compound, Sf9 cells, 1 nM [3H]MK-912; for inhibition at 0.1 µM: read-out: Percentage inhibition of ligand binding, Adrenergic α2A. The procedure: To evaluate in radioligand binding assays the activity of compounds, human recombinant adrenergic α2A receptor expressed in insect Sf9 cells (Uhlen, S. et al, J. Pharmacol. Exp. Ther. 271:1558, 1994) in a modified Tris-HCl buffer (50 mM Tris-HCl, pH 7.4, 12.5 mM MgCl2, 2 mM EDTA) was used. Compounds were incubated with 1 nM [^3H]MK-912 for 60 min at 25° C. MK912 is (2S-trans)-1,3,4,5′,6,6′,7,12b-octahydro-1′,3′-dimethyl-spiro[2H-benzofuro[2,3-a]quinolizine-2,4′(1′H)-pyrimidin]-2′(3′H)-one hydrochloride Non-specific binding was estimated in the presence of 10 μM WB-4101 (2-(2,6-Dimethoxyphenoxyethyl)aminoethyl-1,4-benzodioxane hydrochloride). Receptor proteins were filtered and washed, the filters were then counted to determine [^3H]MK-912 specifically bound. Compounds were screened at 1 μM or lower, using 1% DMSO as vehicle. Compounds were tested in this biochemical assay and percent inhibition of specific binding was determined. Biochemical assay results are presented as the percent inhibition of specific binding in Table 2.

Assay [4] deals with T4, human recombinant adrenergic α1D receptor (Homo sapiens, UniProt P25100).
T4 construct: expressed in transfected cells; host or cells: HEK-293
T4 sequence (P25100 1-572): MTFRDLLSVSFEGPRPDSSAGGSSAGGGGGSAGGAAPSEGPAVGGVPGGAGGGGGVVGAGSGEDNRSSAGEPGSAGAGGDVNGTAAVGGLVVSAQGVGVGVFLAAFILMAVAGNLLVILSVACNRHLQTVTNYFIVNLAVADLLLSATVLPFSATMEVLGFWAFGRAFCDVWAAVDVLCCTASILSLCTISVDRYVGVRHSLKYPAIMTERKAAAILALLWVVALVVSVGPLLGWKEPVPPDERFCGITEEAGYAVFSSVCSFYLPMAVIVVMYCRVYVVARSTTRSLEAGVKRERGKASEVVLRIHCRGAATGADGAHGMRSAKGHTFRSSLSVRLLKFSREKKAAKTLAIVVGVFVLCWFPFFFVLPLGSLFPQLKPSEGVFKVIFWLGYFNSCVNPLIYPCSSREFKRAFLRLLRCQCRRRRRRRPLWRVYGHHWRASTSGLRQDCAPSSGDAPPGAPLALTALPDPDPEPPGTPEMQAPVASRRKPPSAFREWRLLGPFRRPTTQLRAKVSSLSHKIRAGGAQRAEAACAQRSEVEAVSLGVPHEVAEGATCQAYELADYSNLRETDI
The assay can be described thus: Radioligand binding, adrenergic α1D receptor ([3H]Prazosin). The following applies: 0.1 μM compound; HEK-293 cells; 0.6 nM [3H]Prazosin; read-out: Percentage inhibition of ligand binding, Adrenergic α1D. The procedure: Compounds were incubated with 0.6 nM [3H]Prazosin for 60 min at 25° C. Non-specific binding was estimated in the presence of 10 μM phentolamine. Receptor proteins were filtered and washed, the filters were then counted to determine [3H]Prazosin specifically bound. Compounds were screened at 1 μM or lower, using 1% DMSO as vehicle. Biochemical assay results are presented as the percent inhibition of specific binding in Table 2.

Take `Cc1ccc2c(c1)c1c(n2-c2ccccc2-c2ccc(S(N)(=O)=O)cc2)CCN(C)C1` [Compound No. 163, 2′-(2,8-dimethyl-3,4-dihydro-1H-pyrido[4,3-b]indol-5(2H)-yl)biphenyl-4-sulfonamide]: the inhibition (commonly how much of the control response was suppressed) at 0.1 µM in assay [1] worked out at 69%.

Regarding `CNC(=O)c1ccc(-c2ccccc2-n2c3c(c4cc(C)ccc42)CN(C)CC3)cn1` [Compound No. 71, 5-(2-(2,8-dimethyl-3,4-dihydro-1H-pyrido[4,3-b]indol-5(2H)-yl)phenyl)-N-methylpicolinamide], the inhibition at 0.1 µM in assay [2] was determined as 66%; in assay [3], 11%; in assay [4], 87%; in assay [1], 89%.

`Cc1ccc2c(c1)c1c(n2-c2ccc(-c3sccc3C)cn2)CCN(C)C1` [Compound No. 148, 2,8-dimethyl-5-(5-(3-methylthiophen-2-yl)pyridin-2-yl)-2,3,4,5-tetrahydro-1H-pyrido[4,3-b]indole]: the inhibition at 0.1 µM in assay [2] was determined as 63%; in assay [3] it was 50%; in assay [4], 68%; in assay [1] it was 90%.

In the case of `Cc1ccc2c(c1)c1c(n2-c2cccc(-c3ccc(F)cc3)c2)CCN(C)C1` [Compound No. 61, 5-(4′-fluorophenyl-3-yl)-2,8-dimethyl-2,3,4,5-tetrahydro-1H-pyrido[4,3-b]indole], the inhibition at 0.1 µM in assay [2] came to 11%; in assay [3] it was 23%; in assay [4] it was 5%; in assay [1], 7%.

Regarding `CC(=O)Nc1ccc(-c2cccc(-n3c4c(c5cc(C)ccc53)CN(C)CC4)c2)cn1` [Compound 45, N-(5-(3-(2,8-dimethyl-3,4-dihydro-1H-pyrido[4,3-b]indol-5(2H)-yl)phenyl)pyridin-2-yl)acetamide], the inhibition at 0.1 µM in assay [2] worked out at 1%; in assay [3] it was 12%; in assay [4] it was 1%; in assay [1] it was 6%.

For `Cc1ccc2c(c1)c1c(n2-c2cccc(-c3ccnn3C)c2)CCN(C)C1` [Compound No. 66, 2,8-dimethyl-5-(3-(1-methyl-1H-pyrazol-5-yl)phenyl)-2,3,4,5-tetrahydro-1H-pyrido[4,3-b]indole], the inhibition at 0.1 µM was 13% in assay [2], 39% in assay [3], 11% in assay [4] and 18% in assay [1].

Turning to `Cc1ccc2c(c1)c1c(n2-c2ccccc2-c2cnccc2C)CCN(C)C1` [Compound No. 159, 2,8-dimethyl-5-(2-(4-methylpyridin-3-yl)phenyl)-2,3,4,5-tetrahydro-1H-pyrido[4,3-b]indole], the inhibition at 0.1 µM in assay [1] was 56%.

Consider `Cc1ccc2c(c1)c1c(n2-c2ccccc2-c2ccc(S(C)(=O)=O)cc2)CCN(C)C1` [Compound No. 160, 2,8-dimethyl-5-(4′-(methylsulfonyl)biphenyl-2-yl)-2,3,4,5-tetrahydro-1H-pyrido[4,3-b]indole], for which the inhibition at 0.1 µM in assay [1] is 74%.

Take `Cc1ccc2c(c1)c1c(n2-c2cnc3c(c2)CCCC3)CCN(C)C1` [Compound No. 153]: the inhibition at 0.1 µM in assay [3] was 1%.

Take `Cc1ccc2c(c1)c1c(n2-c2cnc(C)c3ccccc23)CCN(C)C1` [Compound No. 164, 2,8-dimethyl-5-(1-methylisoquinolin-4-yl)-2,3,4,5-tetrahydro-1H-pyrido[4,3-b]indole]: in assay [1], the inhibition at 0.1 µM was 3%.

For `Cc1ccc2c(c1)c1c(n2-c2ncccc2-c2ccncc2)CCN(C)C1` [Compound No. 161, 5-(3,4′-bipyridin-2-yl)-2,8-dimethyl-2,3,4,5-tetrahydro-1H-pyrido[4,3-b]indole], the inhibition at 0.1 µM in assay [1] amounted to 26%.

For `Cc1ccc2c(c1)c1c(n2-c2ccccc2-c2cn[nH]c2)CCN(C)C1` [Compound No. 104, 5-(2-(1H-pyrazol-4-yl)phenyl)-2,8-dimethyl-2,3,4,5-tetrahydro-1H-pyrido[4,3-b]indole], in assay [3], the “Percentage inhibition of ligand binding, Adrenergic α2A” value was 19%. The inhibition at 0.1 µM in assay [3] was determined as 10%; in assay [4] it was 22%; in assay [1], 87%. For the same compound, the inhibition at 0.03 µM in assay [1] (0.03 μM compound) was determined as 61%.
